# Experimental data taken from US4952598A, “3-phenyl indolinone derivatives, processes for their preparation, medicaments containing them, and their use” (Hoechst Aktiengesellschaft, priority 1985, dated 1990).
# Structures can show the parent of a compound that is named as a salt.
# Biological target: calcium channels
# Assay: 3H-nitrendipine binding (nitrendipine displacement) test
# Conditions: 3H-nitrendipine 0.1 nM, rat brain cortex membranes, pH 7.4, 25° C., 60 min
# Procedure: Their calcium-antagonistic activity can be shown in the biochemical test model of displacement of tritium-labeled nitrendipine.
# This entails membrane preparations which contain isolated calcium channels being loaded with labeled substance.
# After incubation with the test substance, the radioactivity which has been released into the supernatant solution is determined. […] The compounds of the formula I are likewise very active in other test models with which a calcium-antagonistic action can be detected, for example the coronary blood flow in the isolated guinea pig heart, or the action potential of the isolated guinea pig papillary muscle.
# The test of the activity of substances in the ^3 H-nitrendipine binding test was carried out in a membrane preparation obtained from the cortex of the rat brain and washed several times, the method used essentially being that described by R.J. Gould et al. (Proc. Natl. Acad. Sci. USA 79, 3656 [1982]). The membrane suspension was diluted 1:1500 with TRIS buffer pH 7.4 (50 mM TRIS.HCl, 150 mM NaCl, 1.0 mM CaCl2 and 0.001% by weight, based on TRIS.HCl, NaCl and CaCl2 in solution, of a neutral surface-active substance such as, for example, Genapol^(R)) was incubated in 5 ml portions with ^3 H-nitrendipine (0.1 nM in the test, specific activity 81.3 Ci/mmol) in a shaking water bath at 25° C. for 60 min. The membrane fractions were removed by vacuum filtration through Whatman GF/F glass fiber filters, and the radioactivity was measured in a liquid scintillation counter. The unspecific ^3 H-nitrendipine binding was determined in the presence of 1 μM nifedipine.
row,SMILES,IC50 [nM]
1,"COc1ccc(CCN(C)CCCCOc2ccccc2C2(Cc3ccccc3)C(=O)N(C)c3ccccc32)cc1OC (stereo not shown) [Example 1, 3-Benzyl-3-[2-(4-(N-(2-(3,4-dimethoxyphenyl)ethyl)-N-methylamino)butoxy)phenyl]-1-methylindolin-2-one hydrochloride]",8000
2,"COc1ccc(CCN(C)CCCCOc2ccccc2C2(C(C)C)C(=O)N(C)c3ccccc32)cc1OC (stereo not shown) [Example 3, 3-[2-(4-(N-(2-(3,4-dimethoxyphenyl)ethyl)-N-methylamino)butoxy)-phenyl]-3-isopropyl-1-methylindolin-2-one hydrochloride]",22
3,"CC(C)C1(c2ccccc2OCCCCN2CCN(CCCC(c3ccc(F)cc3)c3ccc(F)cc3)CC2)C(=O)N(C)c2ccccc21 (stereo not shown) [Example 5, 3-[2-(4-(4-(4-bis(4-fluorophenyl)butyl)-1-piperazinyl)butoxy)phenyl]-3-isopropyl-1-methylindolin-2-one dihydrochloride]",13
4,"COc1cc(CN2CCN(CCCCOc3ccccc3C3(C(C)C)C(=O)N(C)c4ccccc43)CC2)cc(OC)c1OC (stereo not shown) [Example 6, 3-Isopropyl-1-methyl-3-[2-(4-(4-(3,4,5-trimethoxybenzyl)-1-piperazinyl)butoxy)phenyl)indolin-2-one dichydrochloride]",44
